Source: the supplement of paper PMC10307832

What was measured:
Experiment in all cases: relative viability (nuclei count vs DMSO), 5 days (fraction); higher = more cells survive
Crizotinib + Pemetrexed = compound: C[C@@H](Oc1cc(-c2cnn(C3CCNCC3)c2)cnc1N)c1c(Cl)ccc(F)c1Cl [Crizotinib] + Nc1nc2[nH]cc(CCc3ccc(C(=O)N[C@@H](CCC(=O)O)C(=O)O)cc3)c2c(=O)[nH]1 [Pemetrexed] (partner 0.2 µM)
How it was run: (§1)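 A single step with final 0.05% Triton X-100, 1% formaldehyde and 1 ug/ml Hoechst fixed the cells and stained nuclei 5 days after treatment. Lung cancer cell lines in 1536-well plates had been treated by pin tool the day after seeding with one drug alone or a fixed anchor-drug dose plus five library-drug doses (not always all listed) in √10 steps, and nuclei were counted on 4× images. Relative viability is the ratio of nuclei in treated wells to nuclei in vehicle wells, taken as the median of duplicate plates.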

Carfilzomib + Olaparib = compound: CC(C)C[C@H](NC(=O)[C@H](CCc1ccccc1)NC(=O)CN1CCOCC1)C(=O)N[C@@H](Cc1ccccc1)C(=O)N[C@@H](CC(C)C)C(=O)[C@@]1(C)CO1 [Carfilzomib] + O=C(c1cc(Cc2n[nH]c(=O)c3ccccc23)ccc1F)N1CCN(C(=O)C2CC2)CC1 [Olaparib] (partner 8 µM)
How it was run: as §1

Olaparib + Navitoclax = compound: O=C(c1cc(Cc2n[nH]c(=O)c3ccccc23)ccc1F)N1CCN(C(=O)C2CC2)CC1 [Olaparib] + CC1(C)CCC(c2ccc(Cl)cc2)=C(CN2CCN(c3ccc(C(=O)NS(=O)(=O)c4ccc(N[C@H](CCN5CCOCC5)CSc5ccccc5)c(S(=O)(=O)C(F)(F)F)c4)cc3)CC2)C1 [Navitoclax] (partner 0.5 µM)
How it was run: as §1

Olaparib + Foretinib = compound: O=C(c1cc(Cc2n[nH]c(=O)c3ccccc23)ccc1F)N1CCN(C(=O)C2CC2)CC1 [Olaparib] + COc1cc2c(Oc3ccc(NC(=O)C4(C(=O)Nc5ccc(F)cc5)CC4)cc3F)ccnc2cc1OCCCN1CCOCC1 [Foretinib] (partner 0.25 µM)
How it was run: as §1

Row | Cell Line | relative viability (Crizotinib + Pemetrexed; first compound 0.01 µM) | relative viability (Crizotinib + Pemetrexed; first compound 0.03162 µM) | relative viability (Crizotinib + Pemetrexed; first compound 0.1 µM) | relative viability (Crizotinib + Pemetrexed; first compound 0.3162 µM) | relative viability (Crizotinib + Pemetrexed; first compound 1 µM) | relative viability (Carfilzomib + Olaparib; first compound 0.001 µM) | relative viability (Carfilzomib + Olaparib; first compound 0.003162 µM) | relative viability (Carfilzomib + Olaparib; first compound 0.01 µM) | relative viability (Carfilzomib + Olaparib; first compound 0.03162 µM) | relative viability (Carfilzomib + Olaparib; first compound 0.1 µM) | relative viability (Olaparib + Navitoclax; first compound 0.08 µM) | relative viability (Olaparib + Navitoclax; first compound 0.253 µM) | relative viability (Olaparib + Navitoclax; first compound 2.53 µM) | relative viability (Olaparib + Navitoclax; first compound 8 µM) | relative viability (Olaparib + Foretinib; first compound 0.08 µM) | relative viability (Olaparib + Foretinib; first compound 0.253 µM) | relative viability (Olaparib + Foretinib; first compound 2.53 µM) | relative viability (Olaparib + Foretinib; first compound 8 µM)
1 | LU99A | 0.165 | 0.167 | 0.173 | 0.142 | 0.173 | 0.287 | 0.233 | 0.276 | 0.168 | 0.137 | 0.775 | 0.635 | 0.547 | 0.289 | 0.826 | 0.646 | 0.608 | 0.537
2 | LXF-289 | 0.807 | 0.939 | 0.788 | 0.736 |  | 1.09 | 1.19 | 1.07 | 0.0687 | 0.0894 | 1.03 | 0.9 | 1.02 | 0.96 | 1.06 | 0.91 | 1.07 | 0.983
3 | NCI-H23 | 0.489 | 0.591 | 0.567 |  | 0.812 | 0.365 | 0.391 | 0.287 | 0.0921 | 0.101 | 0.953 | 0.684 | 0.603 | 0.387 | 1.19 | 0.904 | 0.971 | 0.706
4 | NCI-H322M |  | 0.656 | 0.593 | 0.649 | 0.656 | 0.748 | 0.681 | 0.771 | 0.798 | 0.439 | 1.34 | 1.07 | 1.23 | 1.01 | 1.04 | 0.964 | 0.979 | 0.718
5 | NCI-H441 | 0.25 | 0.265 | 0.292 | 0.246 | 0.237 | 0.749 | 0.542 | 0.288 | 0.146 | 0.15 |  | 0.406 | 0.706 | 0.582 | 1.13 | 0.857 | 0.967 | 0.83
6 | NCI-H460 | 0.0615 | 0.0628 | 0.0607 | 0.0596 | 0.0647 | 0.41 | 0.444 | 0.485 | 0.443 | 0.0304 | 1.18 | 0.94 | 0.815 | 0.424 | 0.925 | 0.889 | 0.914 | 0.437
7 | NCI-H520 | 0.564 | 0.626 | 0.644 | 0.789 | 0.756 | 0.307 | 0.297 | 0.203 | 0.161 | 0.15 | 1.32 | 0.932 | 1.08 | 0.601 | 0.848 | 0.761 | 0.624 | 0.359
8 | NCI-H596 | 0.462 | 0.48 | 0.509 | 0.458 | 0.509 | 0.691 | 0.704 | 0.727 | 0.552 | 0.186 | 0.899 | 0.902 | 0.878 | 0.519 | 0.927 | 0.82 | 0.828 | 0.534
9 | NCI-H647 | 0.162 | 0.188 | 0.146 | 0.177 | 0.186 | 0.641 | 0.644 | 0.0662 | 0.0256 | 0.023 | 1.44 | 1.1 | 1.06 | 0.745 | 1.19 | 1.04 | 1.13 | 1.07
10 | NCI-H838 | 0.214 | 0.237 | 0.253 | 0.265 | 0.24 | 0.79 | 0.799 | 0.785 | 0.126 | 0.109 | 1.12 | 1.06 | 1.03 | 1.03 | 1.18 | 0.921 | 1.02 | 1.01
11 | NCI-H1355 | 0.998 | 0.928 | 1.08 | 0.976 | 1.07 | 0.732 | 0.777 | 0.754 | 0.62 | 0.118 | 0.959 | 0.887 | 0.949 | 0.881 | 1.12 | 0.941 | 1 | 0.832
12 | NCI-H1395 | 0.91 |  | 0.888 | 0.731 | 0.88 |  | 0.516 | 0.428 | 0.356 | 0.303 | 1.27 | 0.937 | 0.776 | 0.573 | 1.04 | 0.87 | 0.842 | 0.563
13 | NCI-H1437 | 0.338 | 0.3 | 0.319 | 0.314 | 0.325 | 0.629 | 0.666 | 0.645 | 0.419 | 0.171 | 1.12 | 1.01 | 0.952 | 0.761 | 1.3 | 1.12 | 1.08 | 0.914
14 | NCI-H1650 | 0.308 | 0.403 | 0.334 | 0.37 | 0.408 | 0.811 | 0.855 | 0.723 | 0.111 | 0.137 | 1.7 | 1.1 | 1.24 | 1.11 | 1.2 | 0.996 | 1.15 | 1.35
15 | NCI-H1651 | 0.545 | 0.369 | 0.65 | 0.378 | 0.535 | 0.184 | 0.188 | 0.167 | 0.101 | 0.0957 | 0.97 | 0.814 | 0.654 | 0.257 | 0.828 | 0.681 | 0.544 | 0.301
16 | NCI-H1666 | 0.826 | 0.814 | 0.87 | 0.808 | 0.82 | 0.757 | 0.782 | 0.75 | 0.709 | 0.528 | 1.17 | 0.828 | 0.796 | 0.853 | 0.936 | 0.867 | 0.793 | 0.823
17 | NCI-H1734 | 0.411 | 0.442 | 0.403 |  | 0.395 | 0.649 | 0.679 | 0.666 | 0.547 | 0.113 | 0.854 | 0.709 | 0.765 | 0.531 | 0.885 | 0.782 | 0.851 | 0.637
18 | NCI-H1755 | 0.373 | 0.44 | 0.382 | 0.445 | 0.408 | 0.978 | 0.934 | 0.875 | 0.609 | 0.343 | 1.02 | 0.912 | 1.01 | 0.876 | 0.922 | 0.898 | 0.868 | 0.787
